Measurements: patent US7399743B2, “Targeted thrombosis” (The Scripps Research Institute, priority 2001, dated 2008)
Entries after “also recorded” stand apart in the source; their conditions may differ.

Key:
[1] = system: LnCap cells; assay: cell proliferation and viability assay (trypan blue); conditions: without / with D-β-E 0.1 uM
Method: A cell proliferation and viability assay was employed to assess DβE inhibitor activity using trypan blue staining. LnCap cells (4×10^4 cells/well) were seeded in 96 well plates. Different concentrations of the DβE inhibitor or the Asp-Glu (D-E) substrate were added to the media as indicated. The % cell viability was determined 48 hours after treatment as the number of living cells (unstained) divided by total cells count (stain+unstained cells).
A cell proliferation and viability assay was employed to assess DβE inhibitor activity using trypan blue staining. LnCap cells (4×10^4 cells/well) were seeded in 96 well plates. Different concentrations of the DβE inhibitor or the Asp-Glu (D-E) substrate were added to the media at the concentrations indicated in FIG. 13A. The % cell viability was determined 48 hours after treatment as the number of living cells (unstained) divided by total cells count (stain+unstained cells).
The cytotoxic effect of methotrexate was assessed with and without the presence of the PSMA inhibitor (D-β-E) or PSMA substrate (D-E) using a cell proliferation and viability assay.

[2] = system: integrin-expressing CHO K1 cells; assay: cell-mediated coagulation assay with CHO K1 cells and human plasma; type: cell-based
Method: Coagulation assays were performed using an established procedure with some modifications to include a step for binding Tissue Factor constructs to cells. Platelet depleted, citrated human plasma pooled from multiple donors was used for these experiments. Cells are dislodged with trypsin free cell dissociation buffer (Gibco), and washed twice with TBS. Cells were then counted with cytometer. Only cells with viability greater than 90% were used for the assay. Varying concentrations of thrombogen were incubated with 10^5 cells in 100 ul TBS containing Ca^++ 10 mM and Mg^++ 5 mM for 15 minutes at 37° C. The assays were initiated by addition of 100 ul of pooled citrated plasma pre-warmed to 37° C. Clotting times were recorded as the interval between assay initiation and clot appearance.
Activation of the coagulation cascade was measured using a coagulation assay. Varying concentrations of Fn-TF or Tissue Factor were incubated with CHO K1 cells for 15 minutes. Coagulation assays were initiated with addition of 100 ul of pooled normal human plasma. The coagulation time was recorded as the interim between the initiation of assay and the appearance of the first fibrin strands.

[3] = biological target: T1, Factor VIIa (Homo sapiens, UniProt P08709); assay: amidolytic assay of Factor VIIa bound to Fn-TF or TF 1-218; type: biochemical; conditions: Factor VIIa 5nM, chromozym t-PA
T1 sequence (P08709 61-212 limits assumed): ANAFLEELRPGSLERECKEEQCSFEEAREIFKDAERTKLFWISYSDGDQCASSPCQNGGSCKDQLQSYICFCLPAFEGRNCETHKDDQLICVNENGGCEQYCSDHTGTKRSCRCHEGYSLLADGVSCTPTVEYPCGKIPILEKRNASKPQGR
T1 sequence (P08709 213-466 limits assumed): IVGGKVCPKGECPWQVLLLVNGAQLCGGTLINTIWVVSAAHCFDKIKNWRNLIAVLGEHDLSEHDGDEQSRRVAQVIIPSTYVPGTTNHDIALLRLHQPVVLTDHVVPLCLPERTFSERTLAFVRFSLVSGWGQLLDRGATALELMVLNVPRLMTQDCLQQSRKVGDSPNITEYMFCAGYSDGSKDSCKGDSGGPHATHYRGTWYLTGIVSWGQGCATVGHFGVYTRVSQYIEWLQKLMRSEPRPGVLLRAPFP
Method: The catalytic activity of Factor VIIa bound to Fn-TF for a peptidyl substrate was analyzed by hydrolysis of chromozym t-Pa (Boehringer Mannheim) and compared with that of the soluble TF 1-218. Varying concentrations TF 1-218 or Fn-TF were incubated with Factor VIIa at a final concentration of 5nM in the presence of 5 mM Ca^++ at ambient temperature for 15 minutes. Chromozym t-PA was added to a concentration of 1 mM. The initial rate of hydrolysis was measured at 406 nm with a kinetic micro-titer plate reader for 1 minute.

[4] = system: integrin on CHO cells; assay: binding of Fn-TF to integrin-expressing CHO K1 cells (Western blot); conditions: for association with CHO cells: varying concentrations, 10^5 CHO K1 cells
Method: The binding of the Fn-TF protein to the integrin on CHO cells was monitored through direct incubation of varying concentrations of recombinant Fn-TF with 10^5 CHO K1 cells in TBS, 10 mM CaCl2, 5 mM MgSO4. The bound and unbound proteins were separated by centrifugation, and the bound Tissue Factor immunoreactivity was detected by Western blot. The amount of Tissue Factor bound was quantified by comparing the intensity of resulting bands on the membrane to that of a standard curve of Tissue Factor protein of known concentration using a densitometer.

[5] = system: Factor X; assay: proteolytic activity of TF construct:Factor VIIa complexes toward Factor X; type: biochemical; conditions: soluble complexes, increasing concentration
Method: The proteolytic activities of both Fn-TF:Factor VIIa and TF 1-218:Factor VIIa complexes toward Factor X were determined by a functional assay (Schullek, Ruf et al. 1994) using Spectrozyme Factor Xa to assess Factor Xa generation. Briefly, varying concentrations of Fn-TF and TF1-218 were pre-incubated with Factor VIIa (75 nM) for 5 minutes at 37° C. in the presence of 5 mM CaCl2. The reaction was initiated by addition of substrate Factor X (1.5 uM). After incubation for 10 minutes at 37° C., the reaction was terminated by adding EDTA to a concentration of 0.1M. The amount of Factor Xa generated was determined by measuring Factor Xa amidolytic activity using […] of the chromogenic substrate Spectrozyme Fxa (American Diagnostica, Greenwich, Conn.). The rate of absorbance increase at 405 nM was measured in a kinetic micro-titer plate reader.
The effect of the fused docking structure on the proteolytic activity of TF:VIIa was studied by a linked functional assay (Schullek, Ruf et al. 1994). Varying concentrations of Fn-TF or TF1-218 were allowed to bind to 10 pM Factor VIIa for 5 minutes. […] The reaction was stopped by addition of 50 mM EDTA and the amount of Factor Xa generated was determined by measuring the Factor Xa amidolytic activity in the assay mixture using spetrozyme FXa as described above.

[6] = median lethal dose in mice; type: in vivo; conditions: 20 gm Balb/C mice
[7] = biological target: NAALADase; conditions: read-out: Ki, inhibition of NAALADase activity; cited from earlier work
[8] = system: factor X; conditions: native Tissue Factor in phospholipid membrane environment; cited from earlier work

CN(Cc1cnc2nc(N)nc(N)c2n1)c1ccc(C(=O)N[C@@H](CCC(=O)O)C(=O)O)cc1 [MTX, methotrexate]
ID50/ID50* (enhancement of tumoricidal activity) [1]: 20

RGDS: RGDS (SEQ ID NO: 17) peptide that binds integrin (A RGDS peptide.) [reference compound]
inhibition of Fn-TF coagulation activity by RGDS peptide ([2]; Fn-TF (20 nM)+RGDS (500 μM), CHO K1 cells): fully blocked; also recorded: almost completely inhibited

Fn-TF: fusion of fibronectin type III repeat domains 8-11 (SEQ ID NO:9) or domain 10 (SEQ ID NO:10) with Tissue Factor residues 3-218
cofactor enhancement of Factor VIIa amidolytic activity, compared with Tissue Factor [3]: Very little difference in amidolytic activity
Fn-TF molecules bound per cell ([4]; 75 nM Fn-TF incubated with 10^5 CHO K1 cells in 100 ul): approximately 5×10^5
association with CHO cells [4]: increasing amounts of Fn-TF become associated with CHO cells
coagulation activity compared with CHO K1 cells expressing approximately 5×10^5 native Tissue Factor molecules ([2]; 75 nM Fn-TF, 10^5 CHO K1 cells): approximately the same level of coagulation activity
coagulation activity ([2]; approximately 100,000 Fn-TF:integrin complexes per cell, CHO K1 cells): 40,000 milliunits
coagulation time ([2]; approximately 100,000 Fn-TF:integrin complexes per cell, CHO K1 cells, human plasma): about 20 seconds
proteolytic activity of the Factor VIIa complex toward Factor X [5]: increased proteolytic activity similar to the curve obtained with TF1-218
LD50 (median lethal dose) [6]: about 8 ug

N[C@@H](Cn1oc(=O)[nH]c1=O)C(=O)O [Quisqalic acid, quisqalic acid]
Ki [7]: 1900 nM

B1: TF1-218: soluble extracellular domain of human Tissue Factor, SEQ ID NO:4 (protein, listed as Homo sapiens)
chain: SGTTNTVAAYNLTWKSTNFKTILEWEPKPVNQVYTVQISTKSGDWKSKCFYTTDTECDLTDEIVKDVKQTYLARVFSYPAGNVESTGSAGEPLYENSPEFTPYLETNLGQPTIQSFEQVGTKVNVTVEDERTLVRRNNTFLSLRDVFGKDLIYTLYYWKSSSSGKKTAKTNTNEFLIDVDKGENYCFSVQAVIPSRTVNRKSTDSPVECMGQEKGEFR
association with CHO cells [4]: no demonstrable association
LD50 (median lethal dose) [6]: greater than 500 ug

B2: truncated Tissue Factor: recombinant Tissue Factor containing only the extracellular domain, 219 amino acids, soluble (protein, listed as Homo sapiens)
chain: SGTTNTVAAYNLTWKSTNFKTILEWEPKPVNQVYTVQISTKSGDWKSKCFYTTDTECDLTDEIVKDVKQTYLARVFSYPAGNVESTGSAGEPLYENSPEFTPYLETNLGQPTIQSFEQVGTKVNVTVEDERTLVRRNNTFLSLRDVFGKDLIYTLYYWKSSSSGKKTAKTNTNEFLIDVDKGENYCFSVQAVIPSRTVNRKSTDSPVECMGQEKGEFRE
times less factor X-activating activity than native Tissue Factor [8]: approximately 10^5
